Here are results for 17 molecules from US9096560B2, “5-heterocyclylalkyl-3-hydroxy-2-phenylcyclopent-2-enones as herbicides” (Syngenta Limited, priority 2008, dated 2015).

Common to all, as to format: in vivo
In assay [1] the test system is Alopecurus myosuroides (ALOMY). Put plainly: Example B post-emergence herbicidal test, ALOMY. The note with it: Alopecurus myosuroides, 312 h, rate 250 g/ha, evaluated after 13 days, scale 0-100, read-out: Post-emergence activity ALOMY (100=total damage to plant; 0=no damage to plant). In outline: (§1)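 Score: 0 = no damage, 100 = total damage, assessed 13 days post-spray. Plants sprayed 8 days after sowing with aqueous dilution of acetone/water (50:50) formulation containing 0.5% Tween 20.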

In assay [2] the test system is Echinochloa crus-galli (ECHCG). Put plainly: Example B pre-emergence herbicidal test, ECHCG. The settings on record: Echinochloa crus-galli, 312 h, rate 250 g/ha, evaluated after 13 days, 100=total damage to plant, 0=no damage to plant. In outline:
(§2)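 Pre-emergence spray one day after sowing; vehicle acetone/water (50:50), 0.5% Tween 20. Percent damage (0 = no effect, 100 = plant killed) recorded 13 days later.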

The test system of assay [3] is Alopecurus myosuroides (ALOMY). Put plainly: Example B pre-emergence herbicidal test, ALOMY. The note with it: Alopecurus myosuroides, 312 h, rate 250 g/ha, evaluated after 13 days, 100=total damage to plant, 0=no damage to plant. In outline: as §2
In assay [4] the test system is Avena fatua (AVEFA). Put plainly: Example B post-emergence herbicidal test, AVEFA. The settings on record: Avena fatua, 312 h, rate 250 g/ha, evaluated after 13 days, scale 0-100, read-out: Post-emergence activity AVEFA (100=total damage to plant; 0=no damage to plant). In outline:
as §1

The test system of assay [5] is Lolium perenne (LOLPE). Put plainly: Example B post-emergence herbicidal test, LOLPE. The note with it: Lolium perenne, 312 h, rate 250 g/ha, evaluated after 13 days, scale 0-100, read-out: Post-emergence activity LOLPE (100=total damage to plant; 0=no damage to plant). The essentials: as §1
The test system of assay [6] is Echinochloa crus-galli (ECHCG). Briefly: Example B post-emergence herbicidal test, ECHCG. The note with it: Echinochloa crus-galli, 312 h, rate 250 g/ha, evaluated after 13 days, scale 0-100, read-out: Post-emergence activity ECHCG (100=total damage to plant; 0=no damage to plant). The essentials:
as §1

Assay [7] has as its system Lolium perenne (LOLPE). Put plainly: Example B pre-emergence herbicidal test, LOLPE. The settings on record: Lolium perenne, 312 h, rate 250 g/ha, evaluated after 13 days, 100=total damage to plant, 0=no damage to plant. In outline: as §2
The subject of assay [8] is Avena fatua (AVEFA). Briefly: Example B pre-emergence herbicidal test, AVEFA. The note with it: Avena fatua, 312 h, rate 250 g/ha, evaluated after 13 days, 100=total damage to plant, 0=no damage to plant. In outline:
as §2

As for `COC(=O)N1CCC(/C=C2\CC(=O)C(c3c(C)cc(C)cc3C)C2=O)C1` (stereo not shown) [Compound T32], the pest or weed control at 250 g/ha is 90% in assay [1]; 100% in assay [2]; 70% in assay [3]; 90% in assay [4]; 90% in assay [5]; 90% in assay [6]. The pest or weed control at 250 g/ha turned out to be 100% in assay [7] and 90% in assay [8].
Turning to `CCSC(=O)N1CCC(/C=C2\CC(=O)C(c3c(C)cc(C)cc3C)C2=O)C1` (stereo not shown) [Compound T33], the pest or weed control at 250 g/ha in assay [1] stood at 60%; in assay [2], 90%; in assay [3], 60%; in assay [4], 70%; in assay [5], 60%; in assay [6] it was 60%. The pest or weed control at 250 g/ha in assay [7] was determined as 90%; in assay [8], 50%.
As to `Cc1cc(C)c(C2C(=O)C/C(=C\C3CCN(C(=O)c4ccccc4)C3)C2=O)c(C)c1` (stereo not shown) [Compound T34], the pest or weed control at 250 g/ha in assay [1] turned out to be 90%; in assay [2], 100%; in assay [3], 70%; in assay [4] it was 100%; in assay [5], 90%; in assay [6], 100%. Further, the pest or weed control at 250 g/ha in assay [7] was determined as 90%; in assay [8], 70%.
`CC(=O)N1CCC(CC2CC(=O)C(c3c(C)cc(C)cc3C)C2=O)C1` (stereo not shown) [Compound T35]: the pest or weed control at 250 g/ha in assay [1] was 70%; in assay [2], 40%; in assay [3], 30%; in assay [4] it was 60%; in assay [5], 70%; in assay [6], 70%. The pest or weed control at 250 g/ha in assay [7] stood at 70%; in assay [8] it was 10%.
Regarding `Cc1cc(C)c(C2C(=O)CC(CC3CCN(S(C)(=O)=O)C3)C2=O)c(C)c1` (stereo not shown) [Compound T36], the pest or weed control at 250 g/ha came out at 80% in assay [1]; 100% in assay [2]; 90% in assay [3]; 90% in assay [4]; 80% in assay [5]; 90% in assay [6]. The pest or weed control at 250 g/ha in assay [7] and in assay [8] was 90% each time.
For `Cc1cc(C)c(C2C(=O)CC(C(O)C3CCOC(C)(C)C3)C2=O)c(C)c1` (stereo not shown) [Compound T38], the pest or weed control at 250 g/ha in assay [1] is 100%; in assay [2], 100%; in assay [3] it was 90%; in assay [4] it was 100%; in assay [5], 100%; in assay [6], 100%. Moreover, the pest or weed control at 250 g/ha was found to be 70% in assay [7] and 40% in assay [8].
In the case of `Cc1cc(C)c(C2C(=O)C/C(=C\C3CCN(C(=O)OCc4ccccc4)CC3)C2=O)c(C)c1` (stereo not shown) [Compound T42], the pest or weed control at 250 g/ha in assay [1] is 0%; in assay [2], 20%; in assay [3] it was 0%; in assay [4], 0%; in assay [5] it was 20%; in assay [6], 30%. For the same molecule, the pest or weed control at 250 g/ha in assay [7] and in assay [8] was 0% in each case.
Turning to `COC(=O)N1CCC(CC2CC(=O)C(c3c(C)cc(C)cc3C)C2=O)C1` (stereo not shown) [Compound T43], the pest or weed control at 250 g/ha is 90% in assay [1]; 100% in assay [2]; 80% in assay [3]; 90% in assay [4]; 100% in assay [5]; 80% in assay [6]. Besides, the pest or weed control at 250 g/ha in assay [7] and in assay [8] was 100% throughout.
In the case of `CCC1CCC(CC2CC(=O)C(c3c(C)cc(C)cc3C)C2=O)O1` (stereo not shown) [Compound T44], the pest or weed control at 250 g/ha in assay [1] is 60%; in assay [2] it was 60%; in assay [3], 90%; in assay [4], 40%; in assay [5], 70%; in assay [6], 80%. Besides, the values for the pest or weed control at 250 g/ha in assay [7] and in assay [8] were 100% and 20%, respectively.
Regarding `CC(=O)N1CCCCC1/C=C1\CC(=O)C(c2c(C)cc(C)cc2C)C1=O` (stereo not shown) [Compound T46], the pest or weed control at 250 g/ha stood at 60% in assay [1]; 10% in assay [2]; 50% in assay [3]; 50% in assay [4]; 40% in assay [5]; 60% in assay [6]. The pest or weed control at 250 g/ha in assay [7] and in assay [8] was 10% each time.
In the case of `Cc1cc(C)c(C2C(=O)C/C(=C\C3CCCCN3S(C)(=O)=O)C2=O)c(C)c1` (stereo not shown) [Compound T47], the pest or weed control at 250 g/ha was 30% in assay [1]; 40% in assay [2]; 20% in assay [3]; 50% in assay [4]; 30% in assay [5]; 60% in assay [6]. For the same molecule, the figures for the pest or weed control at 250 g/ha in assay [7] and in assay [8] were 60% and 50%, respectively.
On to `CC(=O)N1CCCCC1CC1CC(=O)C(c2c(C)cc(C)cc2C)C1=O` (stereo not shown) [Compound T48], for which the pest or weed control at 250 g/ha in assay [1] amounted to 90%; in assay [2], 100%; in assay [3], 90%; in assay [4], 90%; in assay [5], 70%; in assay [6] it was 100%. Also, the pest or weed control at 250 g/ha in assay [7] and in assay [8] was 90% each time.
On to `CCc1cc(C)cc(C)c1C1C(=O)CC(CC2CCOCC2)C1=O` (stereo not shown) [Compound T50], for which the pest or weed control at 250 g/ha in assay [1], in assay [2], in assay [3], in assay [4], in assay [5] and in assay [6] was 100% in each case. Further, the pest or weed control at 250 g/ha in assay [7] and in assay [8] was 100% each time.
With `Cc1cc(C)c(C2C(=O)CC(CC3CCCCN3S(C)(=O)=O)C2=O)c(C)c1` (stereo not shown) [Compound T51], the pest or weed control at 250 g/ha came out at 70% in assay [1]; 80% in assay [2]; 80% in assay [3]; 80% in assay [4]; 60% in assay [5]; 70% in assay [6]. Further, the pest or weed control at 250 g/ha was found to be 100% in assay [7] and 90% in assay [8].
In the case of `Cc1cccc(C)c1C1C(=O)CC(CC2CCOCC2)C1=O` (stereo not shown) [Compound T52], the pest or weed control at 250 g/ha was 90% in assay [1]; 80% in assay [2]; 100% in assay [3]; 80% in assay [4]; 90% in assay [5]; 100% in assay [6]. Further, the pest or weed control at 250 g/ha in assay [7] was found to be 100%; in assay [8], 80%.
With `Cc1cc(C)c(C2C(=O)C/C(=C\C3CCN(C(=O)OC(C)(C)C)CC3)C2=O)c(C)c1` (stereo not shown) [Compound T54], the pest or weed control at 250 g/ha stood at 80% in assay [1]; 100% in assay [2]; 80% in assay [3]; 80% in assay [4]; 70% in assay [5]; 80% in assay [6]. In addition, the pest or weed control at 250 g/ha was determined as 100% in assay [7] and 50% in assay [8].
Take `Cc1cc(C)c(C2C(=O)CC(CC3CCN(C(=O)OC(C)(C)C)CC3)C2=O)c(C)c1` (stereo not shown) [Compound T55]: the pest or weed control at 250 g/ha in assay [1] came to 70%; in assay [2], 90%; in assay [3], 80%; in assay [4] it was 50%; in assay [5] it was 60%; in assay [6] it was 70%. Further, the pest or weed control at 250 g/ha in assay [7] is 100%; in assay [8], 60%.
